These results are taken from ChEMBL document CHEMBL3991601, “The target landscape of clinical kinase drugs” (Science, 2017).

Calls of active or inactive are those of the source. A value given as a limit tells only on which side of the number the result lay.

Assay [1] concerns the target Mitogen-activated protein kinase 1 (Homo sapiens, UniProt P28482).
The target in assay [2] is T1, Delta(24)-sterol reductase (Homo sapiens, UniProt Q15392).
T1 sequence (Q15392 whole entry): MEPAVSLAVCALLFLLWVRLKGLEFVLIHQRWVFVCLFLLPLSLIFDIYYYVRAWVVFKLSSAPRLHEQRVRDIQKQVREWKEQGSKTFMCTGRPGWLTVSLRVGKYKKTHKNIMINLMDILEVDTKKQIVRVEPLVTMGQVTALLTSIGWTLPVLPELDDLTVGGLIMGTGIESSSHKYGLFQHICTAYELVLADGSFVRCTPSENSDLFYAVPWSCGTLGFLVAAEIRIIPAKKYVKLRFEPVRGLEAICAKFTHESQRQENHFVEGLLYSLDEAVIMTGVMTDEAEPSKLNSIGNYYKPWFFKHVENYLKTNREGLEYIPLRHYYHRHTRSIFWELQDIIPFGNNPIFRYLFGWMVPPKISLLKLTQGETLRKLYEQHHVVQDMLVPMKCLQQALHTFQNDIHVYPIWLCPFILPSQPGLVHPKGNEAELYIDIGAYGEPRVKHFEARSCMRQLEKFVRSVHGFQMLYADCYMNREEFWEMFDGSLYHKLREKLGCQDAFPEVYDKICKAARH

Assay [3] addresses Protein kinase C beta type (Homo sapiens, UniProt P05771).
Another assay deals with Adenosine kinase (Homo sapiens, UniProt P55263).
The target of assay [4] is Proto-oncogene tyrosine-protein kinase Src (Homo sapiens, UniProt P12931).
Assay [5] addresses T2, General transcription and DNA repair factor IIH helicase subunit XPD (Homo sapiens, UniProt P18074).
T2 sequence (P18074 whole entry): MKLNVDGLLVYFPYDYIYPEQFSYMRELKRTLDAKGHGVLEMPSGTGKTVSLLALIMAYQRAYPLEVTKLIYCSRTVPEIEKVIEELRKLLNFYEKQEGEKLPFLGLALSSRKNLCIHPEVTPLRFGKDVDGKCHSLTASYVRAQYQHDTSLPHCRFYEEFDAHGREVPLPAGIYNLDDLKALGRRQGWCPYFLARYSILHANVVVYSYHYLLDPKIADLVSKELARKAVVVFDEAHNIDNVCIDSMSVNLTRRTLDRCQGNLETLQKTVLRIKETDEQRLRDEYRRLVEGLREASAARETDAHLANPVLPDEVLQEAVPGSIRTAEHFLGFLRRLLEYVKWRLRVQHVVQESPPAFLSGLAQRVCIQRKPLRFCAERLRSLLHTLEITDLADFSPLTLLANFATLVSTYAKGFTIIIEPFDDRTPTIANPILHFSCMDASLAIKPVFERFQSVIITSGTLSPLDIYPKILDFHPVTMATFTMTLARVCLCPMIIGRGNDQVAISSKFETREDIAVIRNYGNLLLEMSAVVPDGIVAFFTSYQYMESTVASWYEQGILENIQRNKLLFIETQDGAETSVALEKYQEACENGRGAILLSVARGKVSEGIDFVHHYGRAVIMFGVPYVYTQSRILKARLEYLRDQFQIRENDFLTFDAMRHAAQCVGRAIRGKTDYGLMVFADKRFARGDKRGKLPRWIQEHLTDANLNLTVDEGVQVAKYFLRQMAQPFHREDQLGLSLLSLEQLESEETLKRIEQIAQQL
The note with it: read-out: Kd apparent; k-562, colo 205, sk-n-be(2) and mv-4-11.

For assay [6], the target named is T3, Glycogen phosphorylase, liver form (Homo sapiens, UniProt P06737).
T3 sequence (P06737 whole entry): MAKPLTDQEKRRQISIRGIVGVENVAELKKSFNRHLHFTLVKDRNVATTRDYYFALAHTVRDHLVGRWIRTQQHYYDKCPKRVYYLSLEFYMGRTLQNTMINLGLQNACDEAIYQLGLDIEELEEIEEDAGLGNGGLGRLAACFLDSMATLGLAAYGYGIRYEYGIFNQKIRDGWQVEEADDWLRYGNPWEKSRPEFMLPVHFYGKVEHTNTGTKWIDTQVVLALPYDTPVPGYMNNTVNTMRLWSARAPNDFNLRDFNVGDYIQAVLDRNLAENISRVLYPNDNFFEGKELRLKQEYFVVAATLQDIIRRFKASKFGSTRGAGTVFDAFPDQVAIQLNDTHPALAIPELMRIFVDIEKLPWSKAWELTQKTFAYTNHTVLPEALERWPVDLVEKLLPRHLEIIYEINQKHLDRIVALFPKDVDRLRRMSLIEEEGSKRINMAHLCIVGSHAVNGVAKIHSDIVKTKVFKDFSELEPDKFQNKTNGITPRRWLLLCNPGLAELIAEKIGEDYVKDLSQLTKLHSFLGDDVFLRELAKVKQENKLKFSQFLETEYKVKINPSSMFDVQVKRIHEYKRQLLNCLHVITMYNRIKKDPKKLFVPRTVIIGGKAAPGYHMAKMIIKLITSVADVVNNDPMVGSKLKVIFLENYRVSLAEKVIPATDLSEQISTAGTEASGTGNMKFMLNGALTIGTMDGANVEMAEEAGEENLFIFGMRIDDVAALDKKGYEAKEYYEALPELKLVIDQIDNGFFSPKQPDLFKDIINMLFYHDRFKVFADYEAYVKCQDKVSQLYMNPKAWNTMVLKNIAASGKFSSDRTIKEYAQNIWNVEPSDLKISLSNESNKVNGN
Format: subcellular, K-562, COLO 205, SK-N-BE(2) and MV-4-11, Cell lysate. The note with it: read-out: Kd apparent.

Assay [7] deals with Serine/threonine-protein kinase pim-1 (Homo sapiens, UniProt P11309).
For assay [8], the target named is Serine/threonine-protein kinase SIK3 (Homo sapiens, UniProt Q9Y2K2).
Assay [9] concerns the target T4, EKC/KEOPS complex subunit TP53RK (Homo sapiens, UniProt Q96S44).
T4 sequence (Q96S44 whole entry): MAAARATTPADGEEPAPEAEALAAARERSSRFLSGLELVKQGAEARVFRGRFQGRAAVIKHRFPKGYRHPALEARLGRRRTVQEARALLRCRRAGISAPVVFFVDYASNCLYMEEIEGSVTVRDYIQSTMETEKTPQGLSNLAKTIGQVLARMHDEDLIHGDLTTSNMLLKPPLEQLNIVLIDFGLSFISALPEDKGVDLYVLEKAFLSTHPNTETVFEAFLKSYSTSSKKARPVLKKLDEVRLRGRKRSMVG

In assay [10] the target is Mitogen-activated protein kinase 7 (Homo sapiens, UniProt Q13164).
The target of the next assay is DNA topoisomerase 2-beta (Homo sapiens, UniProt Q02880).
Also: in the data inactive means no Kd found up to 30 µM.

Chain of Serine/threonine-protein kinase pim-1 (P11309 whole entry): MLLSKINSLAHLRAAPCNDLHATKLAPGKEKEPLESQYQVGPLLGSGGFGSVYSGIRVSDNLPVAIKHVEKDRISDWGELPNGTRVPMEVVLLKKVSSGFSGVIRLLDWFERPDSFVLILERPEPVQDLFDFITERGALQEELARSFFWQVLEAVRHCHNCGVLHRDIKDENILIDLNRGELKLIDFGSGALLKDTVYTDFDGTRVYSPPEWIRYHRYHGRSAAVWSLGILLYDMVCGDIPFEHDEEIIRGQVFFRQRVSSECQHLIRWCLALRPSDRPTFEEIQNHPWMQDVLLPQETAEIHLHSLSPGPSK
Chain of Adenosine kinase (P55263 whole entry): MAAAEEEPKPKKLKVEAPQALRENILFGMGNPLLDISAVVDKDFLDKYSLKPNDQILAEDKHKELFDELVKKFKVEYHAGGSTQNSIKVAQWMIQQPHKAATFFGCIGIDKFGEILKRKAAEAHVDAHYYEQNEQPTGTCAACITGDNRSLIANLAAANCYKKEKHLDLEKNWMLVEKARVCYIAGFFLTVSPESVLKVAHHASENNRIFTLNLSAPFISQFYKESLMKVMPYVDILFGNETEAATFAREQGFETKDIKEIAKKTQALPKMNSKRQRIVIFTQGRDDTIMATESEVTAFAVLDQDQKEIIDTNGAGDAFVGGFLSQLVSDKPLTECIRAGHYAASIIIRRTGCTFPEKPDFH
Chain of Mitogen-activated protein kinase 7 (Q13164 whole entry): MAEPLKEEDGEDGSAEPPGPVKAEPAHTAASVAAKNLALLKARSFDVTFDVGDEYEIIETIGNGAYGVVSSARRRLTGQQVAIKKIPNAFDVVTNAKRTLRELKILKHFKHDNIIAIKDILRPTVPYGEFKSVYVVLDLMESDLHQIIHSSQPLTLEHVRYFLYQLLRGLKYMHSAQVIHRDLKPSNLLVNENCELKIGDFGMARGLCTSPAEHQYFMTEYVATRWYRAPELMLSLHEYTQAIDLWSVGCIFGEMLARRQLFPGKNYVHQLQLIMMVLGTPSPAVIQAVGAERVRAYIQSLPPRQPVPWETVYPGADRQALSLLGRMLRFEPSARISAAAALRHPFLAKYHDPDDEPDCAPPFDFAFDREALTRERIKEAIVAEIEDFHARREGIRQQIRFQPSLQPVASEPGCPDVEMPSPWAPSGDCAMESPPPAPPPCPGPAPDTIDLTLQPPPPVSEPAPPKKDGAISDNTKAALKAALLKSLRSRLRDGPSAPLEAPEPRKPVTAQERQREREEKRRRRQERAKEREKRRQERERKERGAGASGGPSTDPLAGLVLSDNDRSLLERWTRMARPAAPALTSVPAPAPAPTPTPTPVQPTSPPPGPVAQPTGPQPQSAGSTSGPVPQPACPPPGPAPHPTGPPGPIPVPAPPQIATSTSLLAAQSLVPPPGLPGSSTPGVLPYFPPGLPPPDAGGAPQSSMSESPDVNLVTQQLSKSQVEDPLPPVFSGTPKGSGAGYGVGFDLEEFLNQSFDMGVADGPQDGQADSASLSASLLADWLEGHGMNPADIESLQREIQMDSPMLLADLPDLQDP
Chain of Serine/threonine-protein kinase SIK3 (Q9Y2K2 whole entry): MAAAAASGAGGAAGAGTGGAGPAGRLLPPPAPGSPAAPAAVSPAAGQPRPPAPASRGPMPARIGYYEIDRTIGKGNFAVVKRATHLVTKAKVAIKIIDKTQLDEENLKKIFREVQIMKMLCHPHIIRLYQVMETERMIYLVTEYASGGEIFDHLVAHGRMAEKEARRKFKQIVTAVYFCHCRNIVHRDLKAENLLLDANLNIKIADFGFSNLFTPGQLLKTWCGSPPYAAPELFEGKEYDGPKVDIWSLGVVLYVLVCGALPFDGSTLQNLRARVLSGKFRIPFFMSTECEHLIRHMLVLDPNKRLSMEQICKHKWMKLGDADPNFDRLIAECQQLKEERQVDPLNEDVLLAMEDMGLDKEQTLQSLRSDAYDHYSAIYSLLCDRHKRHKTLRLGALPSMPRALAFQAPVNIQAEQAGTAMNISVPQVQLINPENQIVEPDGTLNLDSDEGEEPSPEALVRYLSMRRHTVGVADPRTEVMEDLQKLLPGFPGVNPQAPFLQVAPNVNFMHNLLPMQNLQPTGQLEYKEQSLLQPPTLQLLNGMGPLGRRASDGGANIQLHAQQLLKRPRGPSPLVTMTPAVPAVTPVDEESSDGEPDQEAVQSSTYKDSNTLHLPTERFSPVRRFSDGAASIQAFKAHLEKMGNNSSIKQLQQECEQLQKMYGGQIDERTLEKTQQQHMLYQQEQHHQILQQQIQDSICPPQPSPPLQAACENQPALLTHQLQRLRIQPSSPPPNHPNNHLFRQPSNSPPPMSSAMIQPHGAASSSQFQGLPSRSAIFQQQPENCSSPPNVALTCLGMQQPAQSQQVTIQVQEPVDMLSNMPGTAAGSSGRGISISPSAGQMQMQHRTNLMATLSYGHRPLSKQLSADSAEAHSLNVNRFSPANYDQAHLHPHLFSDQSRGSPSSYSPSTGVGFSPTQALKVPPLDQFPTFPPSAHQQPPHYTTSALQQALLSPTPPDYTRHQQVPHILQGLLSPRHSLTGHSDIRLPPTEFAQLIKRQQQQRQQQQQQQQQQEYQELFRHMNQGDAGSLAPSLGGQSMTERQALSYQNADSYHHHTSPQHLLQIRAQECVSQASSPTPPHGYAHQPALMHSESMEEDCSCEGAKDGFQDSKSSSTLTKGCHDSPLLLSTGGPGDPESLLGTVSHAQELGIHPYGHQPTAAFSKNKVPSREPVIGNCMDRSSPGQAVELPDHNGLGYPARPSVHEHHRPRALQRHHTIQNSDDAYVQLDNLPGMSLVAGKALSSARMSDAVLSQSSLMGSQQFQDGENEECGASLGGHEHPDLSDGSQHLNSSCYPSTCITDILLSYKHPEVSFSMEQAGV
Chain of Proto-oncogene tyrosine-protein kinase Src (P12931 2-536 limits assumed): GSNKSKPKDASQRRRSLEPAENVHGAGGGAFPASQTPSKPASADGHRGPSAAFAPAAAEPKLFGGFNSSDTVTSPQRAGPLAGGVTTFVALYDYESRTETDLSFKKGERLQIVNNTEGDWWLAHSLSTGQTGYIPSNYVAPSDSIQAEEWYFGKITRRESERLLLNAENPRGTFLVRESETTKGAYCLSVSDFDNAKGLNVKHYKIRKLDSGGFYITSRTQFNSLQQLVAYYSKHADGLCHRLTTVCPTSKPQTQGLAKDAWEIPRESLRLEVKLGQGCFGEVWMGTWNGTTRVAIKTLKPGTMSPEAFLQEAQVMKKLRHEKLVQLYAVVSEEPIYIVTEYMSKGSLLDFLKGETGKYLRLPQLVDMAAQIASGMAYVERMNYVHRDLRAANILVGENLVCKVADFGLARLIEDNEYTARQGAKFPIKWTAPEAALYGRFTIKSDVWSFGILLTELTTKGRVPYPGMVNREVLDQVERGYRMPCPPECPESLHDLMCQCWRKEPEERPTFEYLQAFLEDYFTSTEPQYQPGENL
Chain of DNA topoisomerase 2-beta (Q02880 whole entry): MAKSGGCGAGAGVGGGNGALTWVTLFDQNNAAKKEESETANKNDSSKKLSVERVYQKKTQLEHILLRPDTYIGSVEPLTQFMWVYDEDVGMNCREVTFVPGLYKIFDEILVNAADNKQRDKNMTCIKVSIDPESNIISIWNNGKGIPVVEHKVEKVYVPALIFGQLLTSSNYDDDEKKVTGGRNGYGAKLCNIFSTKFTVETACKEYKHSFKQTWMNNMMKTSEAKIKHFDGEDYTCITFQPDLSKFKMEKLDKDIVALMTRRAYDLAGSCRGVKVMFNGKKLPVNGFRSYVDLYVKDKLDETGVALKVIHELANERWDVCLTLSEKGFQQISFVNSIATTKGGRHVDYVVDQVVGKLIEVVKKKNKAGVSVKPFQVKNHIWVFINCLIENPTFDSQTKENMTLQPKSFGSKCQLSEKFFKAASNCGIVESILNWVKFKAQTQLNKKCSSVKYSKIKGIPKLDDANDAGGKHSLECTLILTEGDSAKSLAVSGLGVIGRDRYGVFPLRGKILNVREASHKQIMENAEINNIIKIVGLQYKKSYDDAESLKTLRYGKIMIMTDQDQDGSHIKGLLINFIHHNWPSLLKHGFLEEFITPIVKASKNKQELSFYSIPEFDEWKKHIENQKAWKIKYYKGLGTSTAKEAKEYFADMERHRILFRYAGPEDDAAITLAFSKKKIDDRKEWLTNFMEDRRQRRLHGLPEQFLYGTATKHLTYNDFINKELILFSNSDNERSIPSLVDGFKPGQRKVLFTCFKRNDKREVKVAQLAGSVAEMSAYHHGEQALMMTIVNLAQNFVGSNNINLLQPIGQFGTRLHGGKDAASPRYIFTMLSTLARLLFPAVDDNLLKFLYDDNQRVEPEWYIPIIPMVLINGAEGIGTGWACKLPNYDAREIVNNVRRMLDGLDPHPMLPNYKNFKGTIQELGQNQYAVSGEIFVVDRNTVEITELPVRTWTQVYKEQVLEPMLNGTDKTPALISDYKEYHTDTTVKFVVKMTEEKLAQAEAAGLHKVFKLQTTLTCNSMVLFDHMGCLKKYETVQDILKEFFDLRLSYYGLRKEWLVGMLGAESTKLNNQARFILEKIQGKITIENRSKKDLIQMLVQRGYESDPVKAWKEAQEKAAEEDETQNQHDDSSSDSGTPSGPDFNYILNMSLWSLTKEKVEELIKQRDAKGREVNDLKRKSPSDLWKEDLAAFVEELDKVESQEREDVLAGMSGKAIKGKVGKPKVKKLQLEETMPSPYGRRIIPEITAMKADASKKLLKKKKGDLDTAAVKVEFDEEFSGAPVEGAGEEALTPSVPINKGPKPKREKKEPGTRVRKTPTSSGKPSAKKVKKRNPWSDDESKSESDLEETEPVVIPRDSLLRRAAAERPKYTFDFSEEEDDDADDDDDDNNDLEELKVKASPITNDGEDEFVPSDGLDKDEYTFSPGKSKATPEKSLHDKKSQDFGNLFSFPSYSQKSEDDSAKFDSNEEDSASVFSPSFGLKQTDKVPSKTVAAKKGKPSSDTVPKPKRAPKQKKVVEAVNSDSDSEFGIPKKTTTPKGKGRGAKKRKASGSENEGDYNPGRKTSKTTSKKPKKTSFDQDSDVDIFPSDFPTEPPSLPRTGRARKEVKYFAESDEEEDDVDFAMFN

Consider `CCS(=O)(=O)N1CC(CC#N)(n2cc(-c3ncnc4[nH]ccc34)cn2)C1` [BARICITINIB], for which the Kd in assay [1] was > 30 µM (inactive); in assay [2], > 30 µM (inactive); in assay [3], 26.3 µM (active); on Adenosine kinase, > 30 µM (inactive); in assay [4], > 30 µM (inactive); in assay [5], > 30 µM (inactive). For the same compound, the Kd (in [6]; in assay [7]; in assay [8]; in [9]; in [10]; at DNA topoisomerase 2-beta) was > 30 µM (inactive) in each case.

As for `COc1ccc(-c2ccc3c(N4CCOC[C@@H]4C)nc(N4CCOC[C@@H]4C)nc3n2)cc1CO` [AZD-8055], the Kd (in [1]; in assay [2]; in assay [3]; on Adenosine kinase; in assay [4]; in assay [5]) was > 30 µM (inactive) each time. Besides, the Kd (in assay [6]; in [7]; in [8]; in [9]; in assay [10]; on DNA topoisomerase 2-beta) was > 30 µM (inactive) in each case.

For `CN1CC[C@@H](c2c(O)cc(O)c3c(=O)cc(-c4ccccc4Cl)oc23)[C@@H]1CO`, the Kd (in assay [1]; in assay [2]; in [3]; at Adenosine kinase; in assay [4]; in assay [5]) was > 30 µM (inactive) each time. The Kd (in assay [6]; in assay [7]; in assay [8]; in assay [9]; in assay [10]; at DNA topoisomerase 2-beta) was > 30 µM (inactive) each time.

As for `C=CC(=O)N1CCC(Oc2cc3c(Nc4ccc(Cl)c(Cl)c4F)ncnc3cc2OC)CC1` [POZIOTINIB], the Kd (in [1]; in [2]; in [3]; on Adenosine kinase; in [4]; in [5]) was > 30 µM (inactive) throughout. Moreover, the Kd (in assay [6]; in assay [7]; in assay [8]; in assay [9]; in assay [10]; on DNA topoisomerase 2-beta) was > 30 µM (inactive) throughout.

For the compound `Cn1cc(-c2ccc3nnc(C(F)(F)c4ccc5ncccc5c4)n3n2)cn1` [JNJ-38877605], the Kd (in assay [1]; in assay [2]; in assay [3]; at Adenosine kinase; in assay [4]; in assay [5]) was > 30 µM (inactive) in each case. Moreover, the Kd (in [6]; in assay [7]; in assay [8]; in [9]; in assay [10]; at DNA topoisomerase 2-beta) was > 30 µM (inactive) throughout.

For the compound `Cc1ccc(-n2nc(C(C)(C)C)cc2NC(=O)NCc2cc(F)ccc2Oc2ccc3c(cnn3CCO)c2)cc1` [PEXMETINIB], the Kd (in [1]; in assay [2]; in assay [3]; on Adenosine kinase; in assay [4]; in assay [5]) was > 30 µM (inactive) each time. For the same compound, the Kd (in assay [6]; in assay [7]; in [8]; in [9]; in [10]; at DNA topoisomerase 2-beta) was > 30 µM (inactive) throughout.

Turning to `Cc1c(F)cc(C(=O)NC2CC2)cc1-c1ccc(C(=O)NCC(C)(C)C)cn1` [LOSMAPIMOD], the Kd (in assay [1]; in assay [2]; in [3]; on Adenosine kinase; in [4]; in [5]) was > 30 µM (inactive) in each case. For the same compound, the Kd (in assay [6]; in assay [7]; in assay [8]; in [9]; in [10]; at DNA topoisomerase 2-beta) was > 30 µM (inactive) each time.

In the case of `CNC(=O)c1ccc(-c2cnc3ncc(Cc4ccc5ncccc5c4)n3n2)cc1F` [CAPMATINIB], the Kd (in assay [1]; in [2]; in [3]; at Adenosine kinase; in [4]; in [5]) was > 30 µM (inactive) in each case. In addition, the Kd (in [6]; in assay [7]; in [8]; in assay [9]; in assay [10]; on DNA topoisomerase 2-beta) was > 30 µM (inactive) throughout.

In the case of `CNC(=O)c1ccc(C)c(-n2c(C)cc(OCc3ccc(F)cc3F)c(Br)c2=O)c1` [PH-797804], the Kd (in [1]; in assay [2]; in assay [3]; at Adenosine kinase; in assay [4]; in assay [5]) was > 30 µM (inactive) throughout. Besides, the Kd (in assay [6]; in assay [7]; in assay [8]; in assay [9]; in assay [10]; on DNA topoisomerase 2-beta) was > 30 µM (inactive) in each case.
